Active and inactive are the calls of the source. No cut-off for these calls is given here.
What was measured:
[1] = Displacement of [3H]Ro15-1788 from GABA-A receptor benzodiazepine site in bovine brain cerebral cortex membranes; parameters: species or system Bos taurus, Membrane
[2] = species on record: Bos taurus; assay: Displacement of [3H]Ro15-1788 from GABA-A receptor benzodiazepine site in bovine brain cerebral cortex membranes at 10 uM relative to control; settings: Membrane
[3] = biological target: GABA A receptor alpha-2/beta-2/gamma-2 (Homo sapiens) (UniProt P47870+P18507+P47869); assay: Displacement of [3H]Ro15-1788 from GABA-Aalpha2beta2gamma2 receptor (unknown origin) expressed in cell membranes after 1 hr relative to control
[4] = test system: Mus musculus; assay: Anxiolytic-like activity in CD-1 mouse assessed as number of transfer from one compartment to other at 30 mg/kg, po administered 30 mins prior to test by light/dark exploration test; assay type: functional
[5] = test system: Mus musculus; assay: Anxiolytic-like activity in CD-1 mouse assessed as time spent in light area at 1 mg/kg, po administered 30 mins prior to test by light/dark exploration test relative to control; assay type: functional
[6] = test system: Mus musculus; assay: Anxiolytic-like activity in CD-1 mouse assessed as time spent in light area at 3 mg/kg, po administered 30 mins prior to test by light/dark exploration test relative to control; assay type: functional
[7] = test system: Mus musculus; assay: Anxiolytic-like activity in CD-1 mouse assessed as number of transfer from one compartment to other at 1 mg/kg, po administered 30 mins prior to test by light/dark exploration test; assay type: functional
[8] = test system: Mus musculus; assay: Anxiolytic-like activity in CD-1 mouse assessed as time spent in light area at 30 mg/kg, po administered 30 mins prior to test by light/dark exploration test relative to control; assay type: functional
[9] = biological target: GABA-A receptor; alpha-5/beta-3/gamma-2 (Homo sapiens) (UniProt P18507+P28472+P31644); assay: Displacement of [3H]Ro15-1788 from GABA-Aalpha5beta3gamma2 receptor (unknown origin) expressed in cell membranes after 1 hr relative to control
[10] = test system: Mus musculus; assay: Anxiolytic-like activity in CD-1 mouse assessed as time spent in light area at 10 mg/kg, po administered 30 mins prior to test followed by flumazenil injection by light/dark exploration test relative to control; assay type: functional
[11] = test system: Mus musculus; assay: Anxiolytic-like activity in CD-1 mouse assessed as number of transfer from one compartment to other at 10 mg/kg, po administered 30 mins prior to test by light/dark exploration test; assay type: functional
[12] = biological target: T1, GABA-A receptor; alpha-1/beta-2/gamma-2 (Homo sapiens, UniProt P14867+P18507+P47870); assay: Displacement of [3H]Ro15-1788 from GABA-Aalpha1beta2gamma2 receptor (unknown origin) expressed in cell membranes after 1 hr
T1 sequence (P14867 whole entry): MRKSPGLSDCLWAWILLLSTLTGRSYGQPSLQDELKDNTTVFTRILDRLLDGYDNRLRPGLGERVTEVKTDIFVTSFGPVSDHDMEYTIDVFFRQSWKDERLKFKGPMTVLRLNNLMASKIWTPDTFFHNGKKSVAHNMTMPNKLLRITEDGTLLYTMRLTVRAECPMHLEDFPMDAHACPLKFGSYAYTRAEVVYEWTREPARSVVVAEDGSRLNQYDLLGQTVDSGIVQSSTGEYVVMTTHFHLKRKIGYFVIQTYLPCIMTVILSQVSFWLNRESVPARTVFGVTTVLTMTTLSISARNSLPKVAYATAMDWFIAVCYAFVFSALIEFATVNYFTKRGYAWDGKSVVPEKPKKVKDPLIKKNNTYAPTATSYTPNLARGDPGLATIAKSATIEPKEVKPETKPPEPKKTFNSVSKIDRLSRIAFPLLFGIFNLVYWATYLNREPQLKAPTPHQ
T1 sequence (P47870 whole entry): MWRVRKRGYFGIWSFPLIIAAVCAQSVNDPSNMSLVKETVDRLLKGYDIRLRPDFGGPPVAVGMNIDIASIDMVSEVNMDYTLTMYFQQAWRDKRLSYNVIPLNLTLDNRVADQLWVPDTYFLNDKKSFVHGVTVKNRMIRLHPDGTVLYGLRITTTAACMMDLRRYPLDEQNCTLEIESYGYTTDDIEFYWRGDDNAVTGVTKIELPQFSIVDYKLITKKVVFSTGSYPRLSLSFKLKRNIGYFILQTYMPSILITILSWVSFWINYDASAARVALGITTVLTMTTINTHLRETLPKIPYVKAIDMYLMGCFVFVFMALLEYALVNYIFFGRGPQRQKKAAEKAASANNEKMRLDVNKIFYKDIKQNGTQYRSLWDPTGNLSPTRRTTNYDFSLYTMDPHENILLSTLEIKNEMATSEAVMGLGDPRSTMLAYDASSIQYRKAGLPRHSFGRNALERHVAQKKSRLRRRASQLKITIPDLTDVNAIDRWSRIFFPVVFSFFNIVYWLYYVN
T1 sequence (P18507 whole entry): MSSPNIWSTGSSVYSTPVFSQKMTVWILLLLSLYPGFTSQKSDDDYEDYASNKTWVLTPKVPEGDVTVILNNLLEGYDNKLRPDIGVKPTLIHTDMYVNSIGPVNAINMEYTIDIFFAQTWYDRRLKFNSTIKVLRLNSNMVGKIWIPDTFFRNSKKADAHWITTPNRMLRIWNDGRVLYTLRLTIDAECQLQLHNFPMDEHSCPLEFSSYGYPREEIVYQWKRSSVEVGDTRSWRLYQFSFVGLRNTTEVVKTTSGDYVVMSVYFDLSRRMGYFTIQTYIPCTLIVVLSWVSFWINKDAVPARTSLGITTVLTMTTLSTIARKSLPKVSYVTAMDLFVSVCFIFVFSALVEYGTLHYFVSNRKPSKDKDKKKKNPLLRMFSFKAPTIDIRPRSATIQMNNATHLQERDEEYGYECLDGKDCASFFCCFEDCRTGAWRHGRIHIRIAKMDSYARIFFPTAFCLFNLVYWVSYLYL

[13] = test system: Mus musculus; assay: Anxiolytic-like activity in CD-1 mouse assessed as number of transfer from one compartment to other at 30 mg/kg, po administered 30 mins prior to test followed by flumazenil injection by light/dark exploration test; assay type: functional
[14] = test system: Mus musculus; assay: Anxiolytic-like activity in CD-1 mouse assessed as time spent in light area at 10 mg/kg, po administered 30 mins prior to test by light/dark exploration test relative to control; assay type: functional
[15] = test system: Rattus norvegicus; assay: Anxiolytic-like activity in Sprague-Dawley rat assessed as total number of arm entries at 10 mg/kg, po administered 30 mins prior to test by elevated […] maze test; assay type: functional
[16] = test system: Rattus norvegicus; assay: Anxiolytic-like activity in Sprague-Dawley rat assessed as time spent in open arms at 10 mg/kg, po administered 30 mins prior to test by elevated […] maze test relative to control; assay type: functional
[17] = test system: Mus musculus; assay: Anxiolytic-like activity in CD-1 mouse assessed as number of transfer from one compartment to other at 3 mg/kg, po administered 30 mins prior to test by light/dark exploration test; assay type: functional
[18] = test system: Rattus norvegicus; assay: Anxiolytic-like activity in Sprague-Dawley rat assessed as time spent in open arms at 1 mg/kg, po administered 30 mins prior to test by elevated […] maze test relative to control; assay type: functional
[19] = test system: Rattus norvegicus; assay: Anxiolytic-like activity in Sprague-Dawley rat assessed as total number of arm entries at 1 mg/kg, po administered 30 mins prior to test by elevated […] maze test; assay type: functional
[20] = test system: Mus musculus; assay: Anxiolytic-like activity in CD-1 mouse assessed as increase in time spent in light area at 1 to 30 mg/kg, po administered 30 mins prior to test by light/dark exploration test; assay type: functional, organism-based

Row | Structure (SMILES) | Ki ([1]; read-out: Ki) [nM] | inhibition [2] [%] | other results
1 | O=c1c(-c2ccccc2)c[nH]c2c(-c3ccc(F)cc3)cnn12 | 132 | > 80 | –
2 | Cc1cccc(-c2cnn3c(=O)c(-c4ccccc4)c[nH]c23)c1 | 87 | > 80 | –
3 | O=c1c(Cc2ccccc2)c[nH]c2c(-c3cccc(Br)c3)cnn12 | 29.9 | > 80 | –
4 | COc1cccc(-c2cnn3c(=O)c(-c4ccccc4)c[nH]c23)c1 | 192 | > 80 | –
5 | O=c1c(-c2ccccc2)c[nH]c2c(-c3ccc4ccccc4c3)cnn12 | – | < 80 | Ki [1]: Not Active
6 | O=c1c(Cc2ccccc2)c[nH]c2c(-c3ccsc3)cnn12 | – | < 80 | Ki [1]: Not Active
7 | COc1cccc(-c2cnn3c(=O)c(Cc4ccccc4)c[nH]c23)c1 | 49.6 | > 80 | –
8 | O=c1c(Cc2ccccc2)c[nH]c2c(-c3ccc(F)cc3)cnn12 | 34.6 | > 80 | –
9 | O=c1c(-c2ccccc2)c[nH]c2c(-c3cccc(C(F)(F)F)c3)cnn12 | 118 | > 80 | –
10 | Cc1cccc(-c2cnn3c(=O)c(Cc4ccccc4)c[nH]c23)c1 | 18 | > 80 | –
11 | O=c1c(-c2ccccc2)c[nH]c2c(-c3cccs3)cnn12 | 215 | > 80 | –
12 | O=c1c(Cc2ccccc2)c[nH]c2c(-c3ccccn3)cnn12 | 29.8 | > 80 | inhibition [3]: 14%; Activity [4]: 28.9; Activity [5]: 113.9%; Activity [6]: 145.2%; Activity [7]: 15; Activity [8]: 164.4%; inhibition [9]: 31%; Activity [10]: 120.08%; Activity [11]: 23.9; Ki [12]: 183 nM; Activity [13]: 12.8; Activity [14]: 165.4%; Activity [15]: 10.5; Activity [16]: 29.6%; Activity [17]: 21.3
13 | O=c1c(Cc2ccccc2)c[nH]c2c(-c3cccnc3)cnn12 | 73.3 | > 80 | –
14 | O=c1c(Cc2ccccc2)c[nH]c2c(-c3cccs3)cnn12 | 502 | > 80 | –
15 | O=c1c(-c2ccccc2)c[nH]c2c(-c3cccnc3)cnn12 | 58.4 | > 80 | –
16 | O=c1c(Cc2ccccc2)c[nH]c2c(-c3ccc4ccccc4c3)cnn12 | 73.3 | > 80 | –
17 | O=c1c(-c2ccccc2)c[nH]c2c(-c3cccc(Br)c3)cnn12 | 39.3 | > 80 | –
18 | O=c1c(Cc2ccccc2)c[nH]c2c(-c3cccc(C(F)(F)F)c3)cnn12 | 22.3 | > 80 | –
19 | O=c1c(Cc2ccccc2)c[nH]c2c(-c3ccccc3)cnn12 | 132 | > 80 | –
20 | CN1C(=O)CN=C(c2ccccc2)c2cc(Cl)ccc21 [DIAZEPAM] | 10 | – | Activity [18]: 34.9%; Activity [5]: 171.6%; Activity [7]: 8.3; Activity [19]: 10.5
21 | O=c1c(Cc2ccccc2)c[nH]c2c(Cc3ccccc3)cnn12 | – | < 80 | Ki [1]: Not Active
22 | O=c1c(-c2ccccc2)c[nH]c2c(-c3cccc4ccccc34)cnn12 | 375 | > 80 | –
23 | O=c1c(-c2ccccc2)c[nH]c2c(-c3ccsc3)cnn12 | 72.2 | > 80 | –
24 | O=c1c(-c2ccccc2)c[nH]c2c(-c3ccccn3)cnn12 | 211 | > 80 | Activity [20]: inactive
25 | O=c1c(-c2ccccc2)c[nH]c2c(-c3ccccc3)cnn12 | 368 | > 80 | –
26 | O=c1c(Cc2ccccc2)c[nH]c2c(-c3cccc4ccccc34)cnn12 | 112 | > 80 | –
27 | O=c1c(-c2ccccc2)c[nH]c2c(Cc3ccccc3)cnn12 | – | < 80 | Ki [1]: Not Active

— ChEMBL document CHEMBL3992560, “Synthesis and pharmacological evaluation of pyrazolo[1,5-a]pyrimidin-7(4H)-one derivatives as potential GABAA-R ligands” (Bioorg Med Chem, 2017)
